The values below come from PubChem BioAssay AID1996.

≈ marks a conversion by molar mass, not a printed value.

For the series the following is noted: buffer; pH 7.4; 200.0 µM.
The compound `O=C(COC(=O)/C=C/c1ccccc1[N+](=O)[O-])NC1CC1` gave a kinetic solubility of more than 43.5 µg/mL.
Under `C=CCNc1oc(-c2cccs2)nc1S(=O)(=O)c1ccccc1` stands 16.8 µg/mL (≈ 48.5 µM); under `Cc1cc(C(=O)N2CCC(Cc3ccccc3)CC2)c(C)o1`, 41.6 µg/mL (≈ 140 µM); under `Cc1nc2ccc(NC(=O)CCC3CCCC3)cc2s1`, 8.9 µg/mL (≈ 30.9 µM).
Compound `COC(=O)c1ccccc1Oc1ccc(NC(=O)c2ccco2)cc1` came in with a kinetic solubility of 49.6 µg/mL (≈ 147 µM).
Take `C=CCNC(=S)Nc1ccc(N(C)C)cc1`: the kinetic solubility was more than 35.3 µg/mL.
As to `S=c1ccc2ccccc2[nH]1`, the solubility (kinetic) came out at 22.6 µg/mL (≈ 140 µM).
For the compound `CCCCN1C(=O)C2(OCCCO2)c2cccc(C)c21`, the solubility (kinetic) came to 25.1 µg/mL (≈ 91.2 µM).
Take `COc1cc([N+](=O)[O-])ccc1NC(=O)Nc1cnccn1`: the solubility (kinetic) stood at 0.8 µg/mL (≈ 2.77 µM).
Take `O=C(Nc1ccc(Cl)c(S(=O)(=O)N2CCOCC2)c1)c1cccs1`: the kinetic solubility stood at 3.2 µg/mL (≈ 8.27 µM).
Take `Cc1ccc([N+](=O)[O-])cc1S(=O)(=O)Nc1cccc(S(=O)(=O)NC2=NCCC2)c1`: the solubility (kinetic) is more than 65.8 µg/mL.
Under `COCC(C)n1c(SCC(=O)NC2CCCCC2C)nc2ccccc2c1=O` (stereo not given) stands more than 60.5 µg/mL; under `O=C(O)CC1(CC(=O)Nc2ccc3sccc3c2)CCCCC1`, 42.6 µg/mL (≈ 129 µM); under `CC(Cc1ccccc1)NC(=O)CC(c1ccccc1)c1ccccc1O` (stereo not given), 10.8 µg/mL (≈ 30 µM).
`CCCCN(C(=O)c1ccc2c(c1)OCO2)C1CCS(=O)(=O)C1` (stereo not given) came in with a solubility (kinetic) of more than 50.9 µg/mL.
For `Cc1ccc(NC(=S)NC2CCSc3ccccc32)cc1` (stereo not given), the solubility (kinetic) was found to be 2.7 µg/mL (≈ 8.59 µM).
Under `COc1cccc(CNC(=O)Cc2ccc(-c3ccccc3)cc2)c1` stands 5.1 µg/mL (≈ 15.4 µM); under `O=c1[nH]c(N2CCCCC2)nc2ncn(Cc3ccccc3)c12`, 33.3 µg/mL (≈ 108 µM); under `CCC1CCCCN1Cc1c(O)ccc2c(=O)c(-c3ccccc3OC)coc12` (stereo not given), 51.3 µg/mL (≈ 130 µM).
In turn, `Fc1ccc(OCc2cc(-c3ccccc3)no2)cc1` yielded a kinetic solubility of less than 0.6 µg/mL.
For `COc1ccccc1NC(=O)COc1ccc2c(c1)OCO2`, the solubility (kinetic) amounted to 2.5 µg/mL (≈ 8.3 µM).
`CNC(=S)NC1(C)CCS(=O)(=O)C1` (stereo not given) returned a kinetic solubility of more than 33.3 µg/mL.
`CCNc1nc(NCC)nc(N(C#N)C(C)C)n1` registered a solubility (kinetic) of more than 37.4 µg/mL.
In the case of `Cc1cccc(OCC(=O)NCCCNC(=O)c2ccc(C)nc2)c1`, the kinetic solubility is more than 51.2 µg/mL.
Compound `CCCCC(=O)NC(=S)Nc1cc([N+](=O)[O-])ccc1OC` had a kinetic solubility of 0.7 µg/mL (≈ 2.25 µM).
In turn, `COc1ccc(/C=N/NC(=O)c2cc[n+]([O-])cc2)cc1` came in with a solubility (kinetic) of more than 40.7 µg/mL.
With `Cc1nn(C)c(C)c1NS(=O)(=O)c1ccc(Cl)s1`, the solubility (kinetic) is more than 45.9 µg/mL.
As to `Cc1nc(NC(=O)c2cncc(Br)c2)ccc1Br`, the solubility (kinetic) was 2.1 µg/mL (≈ 5.66 µM).
For the compound `O=C(CNC(=O)c1ccccc1Cl)c1ccccc1`, the solubility (kinetic) stood at 37.6 µg/mL (≈ 137 µM).
With `O=C(NCCN1CCOCC1)c1ccc(Cl)cc1`, the solubility (kinetic) is more than 40.3 µg/mL.
Under `COC(=O)c1sccc1NC(=O)c1cccs1` stands less than 0.6 µg/mL; under `Cc1nnc(SCC(=O)N2CCCC2)n(N)c1=O`, more than 40.4 µg/mL.
In turn, `COc1ccccc1CNC(=O)c1cc(C(=O)CC(C)C)c[nH]1` displayed a solubility (kinetic) of 1.6 µg/mL (≈ 5.09 µM).
Under `Cc1ccccc1CN(C)C(=O)CNC(=O)c1ccc2ccccc2c1` stands 31.1 µg/mL (≈ 89.8 µM); under `CNC(=O)Nc1ccccc1C(=O)Nc1ccccc1`, more than 40.4 µg/mL.
The result for `Cc1ccc(C)c(Nc2c([N+](=O)[O-])c(=O)oc3ccccc23)c1` reads 2.4 µg/mL (≈ 7.73 µM).
Under `Cc1ccc(S(=O)(=O)CC(=O)Nc2ccc(F)c(F)c2F)cc1` stands 4.8 µg/mL (≈ 14 µM); under `CC(=C\c1ccccc1)/C=C1/SC(=S)N(CCC(=O)O)C1=O`, 34.7 µg/mL (≈ 104 µM); under `O=C1CN=C(c2ccc(Cl)cc2)c2oc3ccccc3c2N1`, less than 0.3 µg/mL.
On to `CN(C(=O)CCc1nc2ccccc2c(=O)[nH]1)C1CCS(=O)(=O)C1` (stereo not given), for which the kinetic solubility was more than 52.4 µg/mL.
Take `CCCCC(=O)NC1(C(F)(F)F)NC(=O)N(Cc2ccccc2)C1=O` (stereo not given): the solubility (kinetic) is 46.1 µg/mL (≈ 129 µM).
`COc1cc2ccccc2cc1C(=O)N1CCN(C(C)=O)CC1` showed a kinetic solubility of 46.6 µg/mL (≈ 149 µM).
Under `CCOc1nc(-c2ccccc2)c2cc(C)ccc2n1` stands 4.8 µg/mL (≈ 18.2 µM); under `COC(=O)c1cccc(NC(=O)CC2NCCNC2=O)c1` (stereo not given), 39.6 µg/mL (≈ 136 µM); under `Cc1ccc2[nH]c(O)c(N=O)c2c1`, more than 26.4 µg/mL.
Take `CCN(CC)C(=O)c1ccc(CS(=O)(=O)Cc2ccccc2)cc1`: the solubility (kinetic) was more than 51.8 µg/mL.
Turning to `CN1CCN(C(=O)NCC23CC4CC(CC(C4)C2)C3)CC1`, the kinetic solubility was more than 43.7 µg/mL.
The compound `N#C/C(=C\c1ccc2c(c1)OCO2)C(N)=S` had a kinetic solubility of 5.8 µg/mL (≈ 25 µM).
Compound `O=[N+]([O-])c1ccc(S(=O)(=O)NCCCc2ccccc2)cc1` displayed a kinetic solubility of 28 µg/mL (≈ 87.4 µM).
The result for `CCn1c(SCc2ccccc2)nc2cc(OC)c(OC)cc2c1=O` reads less than 0.4 µg/mL; that for `CCSS(=O)(=O)c1cccc2cccnc12`, more than 38 µg/mL.
In turn, `O=C(CN1C(=O)COc2ccccc21)NCCN1CCCC1` had a solubility (kinetic) of more than 45.5 µg/mL.
Take `CCc1sc(C(=O)Nc2ccc(N3CCOCC3)cc2)cc1C`: the solubility (kinetic) stood at 8.1 µg/mL (≈ 24.5 µM).
In the case of `O=C1C2C3C=CC(CC3)C2C(=O)N1c1cccc(Br)c1` (stereo not given), the solubility (kinetic) came out at 2 µg/mL (≈ 6.02 µM).
For the compound `C[N+](C)=C1SCC(C)(/C=N/O)S1.[Br-]` (stereo not given), the solubility (kinetic) was more than 42.8 µg/mL.
`O=C(COc1cccnc1[N+](=O)[O-])NCc1ccccc1` registered a kinetic solubility of more than 43.1 µg/mL.
`COC(=O)CNC(=O)COC(=O)/C=C/c1ccccc1[N+](=O)[O-]`: the solubility (kinetic) was found to be 41.3 µg/mL (≈ 128 µM).
For `CCOc1cccc(NC(=O)/C(C#N)=C\c2cccnc2)c1`, the kinetic solubility worked out at 30.4 µg/mL (≈ 104 µM).
In turn, `CC(=O)N1CCN(C(=O)c2cc(C)oc2C)CC1` registered a solubility (kinetic) of more than 37.5 µg/mL.
Compound `Cc1csc(SCC(=O)NC(C)c2ccc(F)cc2)n1` (stereo not given) came in with a solubility (kinetic) of 38.8 µg/mL (≈ 125 µM).
`Cc1ccccc1C(=O)NC(CC(C)C)C(=O)NCC(C)(C)N1CCOCC1` (stereo not given) showed a solubility (kinetic) of more than 58.4 µg/mL.
Compound `O=C(NCCN1CCOCC1)c1c(Cl)cccc1Cl` gave a solubility (kinetic) of 44.9 µg/mL (≈ 148 µM).
For `COc1ccccc1Nc1nc(N)nc(CN2CC(C)CC(C)C2)n1` (stereo not given), the solubility (kinetic) is 14 µg/mL (≈ 40.9 µM).
The result for `Cc1ccc(C)c(OCC(=O)O/N=C(\N)c2cccc([N+](=O)[O-])c2)c1` reads 1.2 µg/mL (≈ 3.5 µM).
For `Cc1onc(-c2c(F)cccc2Cl)c1C(=O)NC1CC1`, the solubility (kinetic) was more than 44.2 µg/mL.
Under `COc1ccccc1CNC(=O)CCNS(=O)(=O)/C=C/c1ccc(C)cc1` stands 57.8 µg/mL (≈ 149 µM).
`COc1ccc(NC(=O)CCn2cc(C)c3ccccc32)cc1` displayed a kinetic solubility of 4.4 µg/mL (≈ 14.3 µM).
`COc1ccc(Nc2nc(Cl)c(C=O)s2)cc1` registered a kinetic solubility of 11.1 µg/mL (≈ 41.3 µM).
Regarding `CC(=O)Nc1ccc(S(=O)(=O)N2CCSc3ccccc32)cc1`, the kinetic solubility amounted to 49.6 µg/mL (≈ 142 µM).
As to `O=C(O)c1ccc2cc(-c3ccccc3)[nH]c2c1`, the solubility (kinetic) came out at 31.2 µg/mL (≈ 132 µM).
Compound `Cc1cc(=O)oc2cc(OCCC[n+]3ccccc3)ccc12.[Br-]` displayed a kinetic solubility of 53.6 µg/mL.
Compound `Cc1ccc(O)c(NC(=S)NC(=O)C(C)C)c1` gave a kinetic solubility of more than 37.8 µg/mL.
For the compound `Cc1nn(CCCC(=O)Nc2ccccn2)c(C)c1[N+](=O)[O-]`, the kinetic solubility was more than 45.5 µg/mL.
`Cc1ccc(OCC(=O)NCCCNC(=O)c2cccnc2)cc1` yielded a kinetic solubility of more than 49.1 µg/mL.
Compound `CCOC(=O)c1[nH]c(C)c(C(=O)OCc2ccc(C)cc2)c1C` registered a kinetic solubility of 1.1 µg/mL (≈ 3.49 µM).

A word on the kinetic solubility: it is the concentration staying in solution when a stock, usually in DMSO, is diluted into the medium.
